Where two headings read alike, the source gives them in different places. Blank lines part the entries; values can stand above or below the molecule they belong to.
Legend:
[1] = biological target: NS3 enzyme, genotype 1b HCV (HCV NS3/4A protease) (Hepatitis C virus genotype 1b, UniProt Q9WMX2); experiment: biochemical
[2] = type: physicochemical; details: Stock solution
Method: [table] Stock solutions of GP205 were prepared by dissolving an accurately weighed amount of reference standard in methanol to yield a final concentration of 1 mg/mL. The solutions were sonicated for 5 min to ensure complete dissolution. Then the solutions were allowed to equilibrate to room temperature and diluted to volume with methanol. Working standard solutions of GP205 in the concentration range of 20–50,000 ng/mL were prepared from individual aliquots of 1 mg/mL solution using methanol–water (95:5, v/v) as the diluent. The stock standard solution of IS was prepared by dissolving appropriate amount of paclitaxel in methanol at the concentration of 1 mg/mL. A 1 μg/mL IS working solution was obtained by diluting the stock solution of paclitaxel with methanol–water (95:5, v/v). All the solutions were stored at 4 °C and brought to room temperature before use. Calibration standards were prepared daily by spiking 5 μL of the appropriate standard solutions to 45 μL of the blank SD rat plasma. Plasma concentrations were 2, 5, 10, 50, 100, 200, 500, 2000 and 5000 ng/mL for GP205. QC samples, which were used in the validation and during the pharmacokinetics study, were prepared from different sources by independent dilution at three levels (5, 100, 4000 ng/mL) for GP205. QC samples were aliquoted into 1.5 mL non-sterile Eppendorf tubes and stored at −80 °C until analysis.

[3] = Sprague-Dawley, rat, in vivo, po
Method: (§1) The method developed above was applied to a pharmacokinetic study of GP205 to SD rats after single oral doses at 2.5, 5 and 10 mg/kg and an intravenous injection dose at 1 mg/kg.
(§2) Twenty four SD rats (12 males and 12 females), weighing 210 ± 8 g (mean ± SD) were fed with certified standard diet and tap water ad libitum. Temperature and humidity were regulated at 21–23 °C and 30%–60%, respectively. A light/dark cycle of 12 h on/12 h off was established. After 1 week of acclimatization, they were randomly divided into 4 groups (3 males and 3 females for each group). After fasted overnight, three groups of them received oral administration of GP205 at three dosages 2.5 mg/kg, 5 mg/kg, 10 mg/kg dissolved in mixed solvent (5% DMSO, 40% PEG-400, 55% physiological saline), respectively. The other group of them received an intravenous injection of GP205 at 1 mg/kg. […] Blood samples (100 μL) were collected into heparinized tubes before administration and at 0.083, 0.17, 0.33, 0.5, 1, 2, 3, 4, 6, 8, 12, 24, 36, 48 h after oral administration or before administration and at 0, 0.083, 0.17, 0.33, 0.5, 1, 2, 3, 4, 6, 8, 12, 24, 36 , 48 h after intravenous administration. The plasma was separated from heparinized blood by centrifugation at 3500 rpm for 10 min and stored at −80 °C prior to analysis.

[4] = both, Sprague-Dawley, rat, in vivo, iv, 1 mg/kg
Method: as §1, §2

[5] = Sprague-Dawley, rat
[6] = in vivo; details: Sprague-Dawley, rat
Method: as §1, §2

[7] = in vivo; details: both, Sprague-Dawley, rat, iv, 1 mg/kg
Method: as §1, §2

[8] = set-up: method as in PMID 24900304; details: comparison value for MK-1220; cited from earlier work
[9] = set-up: method as in PMID 15732092; details: rhesus monkeys; cited from earlier work
[10] = 4 °C for 40 days, nominal 5 ng/mL
[11] = 4 °C for 40 days, nominal 100 ng/mL
[12] = 4 °C for 40 days, nominal 4000 ng/mL
[13] = 25 °C for 24 h, nominal 5 ng/mL
[14] = 25 °C for 24 h, nominal 100 ng/mL
[15] = 25 °C for 24 h, nominal 4000 ng/mL

Chain of NS3 enzyme, genotype 1b HCV (HCV NS3/4A protease) (Q9WMX2 1027-1657): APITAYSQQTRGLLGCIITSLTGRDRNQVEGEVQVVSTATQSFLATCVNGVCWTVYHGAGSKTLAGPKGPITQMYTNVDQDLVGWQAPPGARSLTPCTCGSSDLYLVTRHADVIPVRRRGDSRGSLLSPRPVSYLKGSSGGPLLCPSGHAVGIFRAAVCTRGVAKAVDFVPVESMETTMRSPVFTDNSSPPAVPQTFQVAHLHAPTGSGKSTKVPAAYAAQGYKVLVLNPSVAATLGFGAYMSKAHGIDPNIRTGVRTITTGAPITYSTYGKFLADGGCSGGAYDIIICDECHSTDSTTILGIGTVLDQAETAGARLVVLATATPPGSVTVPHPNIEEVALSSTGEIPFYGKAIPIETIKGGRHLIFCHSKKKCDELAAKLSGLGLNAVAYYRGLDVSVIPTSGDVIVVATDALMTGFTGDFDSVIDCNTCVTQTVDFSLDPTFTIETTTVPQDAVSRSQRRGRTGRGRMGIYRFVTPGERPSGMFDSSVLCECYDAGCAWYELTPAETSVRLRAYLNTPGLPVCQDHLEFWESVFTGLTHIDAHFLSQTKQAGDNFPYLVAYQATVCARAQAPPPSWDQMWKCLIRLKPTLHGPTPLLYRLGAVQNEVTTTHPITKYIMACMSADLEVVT
Chain of NS3 enzyme, genotype 1b HCV (HCV NS3/4A protease) (Q9WMX2 1658-1711): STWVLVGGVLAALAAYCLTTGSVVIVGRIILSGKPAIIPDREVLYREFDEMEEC

Compound: C=C[C@@H]1C[C@]1(NC(=O)[C@@H]1C[C@@H]2CN1C(=O)[C@H](C1CCCCC1)NC(=O)[C@@H](NC(=O)OC(C)(C)C)COC/C=C/c1cc3c(nccc3cc1OC)O2)C(=O)NS(=O)(=O)C1CC1 [GP205, potassium tert-butyl N-[(3R,5S,8S,11S,15E)-8-cyclohexyl-5-{[(1R,2S)-1-[(cyclo-propanesulfonyl)carbamoyl]-2-ethenylcyclopropyl]carbamoyl}-18-methoxy-7,10-dioxo-2,13-dioxa-6,9,23-triazatetracyclo[15.6.2.13,6.020,24]hexacosa-1(23),15,17(25),18,20(24),21-hexaen-11-yl] carbamate monohydrate]
- IC50 [1]: 0.004 µM
- Accuracy [2, 10]: 2.8%
- Measured Conc. [2, 10]: 5.14 ng/mL
- Accuracy [2, 11]: 0.6%
- Measured Conc. [2, 11]: 100.63 ng/mL
- Accuracy [2, 12]: −0.2%
- Measured Conc. [2, 12]: 3992.75 ng/mL
- Accuracy [2, 13]: 1.8%
- Measured Conc. [2, 13]: 5.09 ng/mL
- Accuracy [2, 14]: 3.3%
- Measured Conc. [2, 14]: 103.26 ng/mL
- Accuracy [2, 15]: −0.3%
- Measured Conc. [2, 15]: 3987.91 ng/mL
- AUC relative to MK-1220 (fold higher) [3]: ~11 fold
- Cmax relative to MK-1220 (fold higher) [3]: about 2 fold
- Time of maximum plasma drug concentration ([3]; both): about 6 h
- VD [4]: 0.31 ± 0.12 L
- Accuracy ([5]; 5 ng/mL): −5.5%
- Measured Conc. ([5]; 5 ng/mL): 4.73 ng/mL
- Accuracy ([5]; 100 ng/mL): −5.1%
- Measured Conc. ([5]; 100 ng/mL): 94.90 ng/mL
- Accuracy ([5]; 4000 ng/mL): −1.9%
- Measured Conc. ([5]; 4000 ng/mL): 3925.86 ng/mL
- Accuracy ([5]; 4 h, 5 ng/mL): −3.3%
- Measured Conc. ([5]; 4 h, 5 ng/mL): 4.84 ng/mL
- Accuracy ([5]; 4 h, 100 ng/mL): −1.6%
- Measured Conc. ([5]; 4 h, 100 ng/mL): 98.39 ng/mL
- Accuracy ([5]; 4 h, 4000 ng/mL): −2.9%
- Measured Conc. ([5]; 4 h, 4000 ng/mL): 3884.71 ng/mL
- Accuracy ([5]; 24 h, 5 ng/mL): −4.2%
- Measured Conc. ([5]; 24 h, 5 ng/mL): 4.79 ng/mL
- Accuracy ([5]; 24 h, 100 ng/mL): −3.9%
- Measured Conc. ([5]; 24 h, 100 ng/mL): 96.13 ng/mL
- Accuracy ([5]; 24 h, 4000 ng/mL): −2.4%
- Measured Conc. ([5]; 24 h, 4000 ng/mL): 3904.44 ng/mL
- Accuracy ([5]; 40 days, 5 ng/mL): −7.7%
- Measured Conc. ([5]; 40 days, 5 ng/mL): 4.61 ng/mL
- Accuracy ([5]; 40 days, 100 ng/mL): −7.2%
- Measured Conc. ([5]; 40 days, 100 ng/mL): 92.84 ng/mL
- Accuracy ([5]; 40 days, 4000 ng/mL): −4.7%
- Measured Conc. ([5]; 40 days, 4000 ng/mL): 3812.43 ng/mL
- concentration at 1 h ([6]; po, 2.5 mg/kg): 0.716 µg/mL
- bioavailability ([6]; both): 34%
- AUC ([6]; both, po, 2.5 mg/kg): 64.3 µg·h/mL
- AUC(0-inf) ([6]; both, po, 2.5 mg/kg): 70.1 µg·h/mL
- Cmax ([6]; both, po, 2.5 mg/kg): 4.26 ± 0.4 µg/mL
- MRT ([6]; both, po, 2.5 mg/kg): 19.4 ± 3.22 h
- Tmax ([6]; both, po, 2.5 mg/kg): 6.3 ± 0.8 h
- half-life ([6]; both, po, 2.5 mg/kg, t1/2): 12.4 ± 1.51 h
- AUC ([6]; both, po, 5 mg/kg): 122 µg·h/mL
- AUC(0-inf) ([6]; both, po, 5 mg/kg): 135 µg·h/mL
- Cmax ([6]; both, po, 5 mg/kg): 6.78 ± 0.75 µg/mL
- MRT ([6]; both, po, 5 mg/kg): 22.2 ± 2.18 h
- Tmax ([6]; both, po, 5 mg/kg): 6.3 ± 1.5 h
- half-life ([6]; both, po, 5 mg/kg, t1/2): 13.9 ± 1.48 h
- AUC ([6]; both, po, 10 mg/kg): 176 µg·h/mL
- AUC(0-inf) ([6]; both, po, 10 mg/kg): 205 µg·h/mL
- Cmax ([6]; both, po, 10 mg/kg): 9.41 ± 0.583 µg/mL
- MRT ([6]; both, po, 10 mg/kg): 25.6 ± 3.48 h
- Tmax ([6]; both, po, 10 mg/kg): 6.3 ± 0.8 h
- half-life ([6]; both, po, 10 mg/kg, Elimination half time (t1/2)): 12.4 to 17.2 h
- half-life ([6]; both, po, 10 mg/kg, t1/2): 17.2 ± 2.73 h
- AUC [7]: 66.6 µg·h/mL
- AUC(0-inf) [7]: 75.2 µg·h/mL
- C0 [7]: 9.51 ± 0.442 µg/mL
- MRT [7]: 20.8 ± 3.41 h
- clearance [7]: 0.02 L/h/kg
- half-life [7]: 16.3 ± 2.99 h

- IC50 ([1]; NS3 enzyme, genotype 1b HCV, in vitro, read-out: IC50): 0.011 µM
Compound: C=C[C@@H]1C[C@]1(NC(=O)[C@@H]1C[C@@H]2CN1C(=O)[C@H](C1CCCCC1)NC(=O)OCC(C)(C)CCCc1cc3c(nccc3cc1OC)O2)C(=O)NS(=O)(=O)C1CC1 [MK-1220]
- t1/2 [8]: about 6 h

- IC50 [1]: 0.095 µM
Compound: CCC[C@H](NC(=O)[C@@H]1[C@H]2CCC[C@H]2CN1C(=O)[C@@H](NC(=O)[C@@H](NC(=O)c1cnccn1)C1CCCCC1)C(C)(C)C)C(=O)C(=O)NC1CC1 [telaprevir]

Compound: COc1ccc2c(O[C@@H]3C[C@H]4C(=O)N[C@]5(C(=O)O)C[C@H]5/C=C\CCCCC[C@H](NC(=O)OC5CCCC5)C(=O)N4C3)cc(-c3csc(NC(C)C)n3)nc2c1 [BILN-2061]
- Cardiotoxicity finding [9]: cardiotoxocity identified in rhesus monkeys

— PMC6272426, “LC-ESI-MS/MS Analysis and Pharmacokinetics of GP205, an Innovative Potent Macrocyclic Inhibitor of Hepatitis C Virus NS3/4A Protease in Rats” (Molecules, 2015)
